Data reported in patent US6444871B1, “Tetracycline repressor regulated mammalian cell transcription and viral replication switch” (Brigham and Women's Hospital, priority 1997, dated 2002).

System: tet operator-bearing hCMV major immediate-early enhancer-promoter
Assay: hEGF expression in porcine partial thickness wounds after particle-mediated gene transfer
Format: in vivo, pig
Details: 500 mg tetracycline intravenous; day 2 to day 3 post-gene transfer
Description: FIG. 5. In vivo regulation of the hCMV major immediate-early enhancer-promoter by the tet repressor. A total of 18 partial thickness wounds ([…]) were created on porcine dorsal skin. Nine wounds received 0.2 μg of pCMVtetOEGF and 0.8 μg of pcDNA3 vector DNA and the others received 0.2 μg of pCMVtetOEGF and 0.8 μg of pcDNA3-tetR by particle-mediated gene transfer. After particle bombardment, each transfected wound was enclosed in a sealed vinyl adhesive chamber containing 1.2 ml of isotonic saline in the presence of 100 units/ml penicillin and 100 μg/ml streptomycin. Wound fluid was collected from the chambers at 22, 46 and 70 hours after gene transfer and stored at −70° C. Following collection of wound fluid at each indicated time point, a new chamber was applied. Each pig was given 500 mg of tetracycline by intravenous injection at 46 hours after gene transfer. hEGF expression in wound fluid was determined by ELISA. The vertical line associated with each bar represents standard error. […]
Preparation of cartridges with coated DNA-gold beads for Accell (Agracetus/Geniva, Inc.) particle-mediated gene transfer and the utilization of the Accell helium gene gun were according to the protocol provided by Geniva, Inc. (8520 University Green, Middleton, Wis. 53562). […] Levels of EGF in wound fluid was determined by ELISA with anti-HEGF specific antibody. […]

SMILES: CN(C)[C@@H]1C(O)=C(C(N)=O)C(=O)[C@@]2(O)C(O)=C3C(=O)c4c(O)cccc4[C@@](C)(O)[C@H]3C[C@@H]12 [tetracycline]
- increase of human EGF expression in wounds receiving pCMVtetOEGF and pcDNA3-tetR: 4 fold
